Reference: US11419918B2, “Treatment of biliary cirrhosis based on oxyntomodulin analogue GLP-1R/GCGR dual-target agonist peptide” (Shenzhen Turier Biotech Co., Ltd., priority 2017, dated 2022)
Numbered stars: 1 amine (or outer) side, 2 acyl side, 3 side chain; on linkers, the order of the positions; unused ones are H or OH. Square brackets hold non-standard residues; d marks the D form. Primed or numbered codes have the meaning given here. Side chains are listed from the residue outwards. Ends that are not written are not given here. * marks the point of attachment. C18 diacid = O=C(O)CCCCCCCCCCCCCCCCC(=O)*; C16 diacid = O=C(O)CCCCCCCCCCCCCCC(=O)*; γGlu = O=C(O)[C@H](CCC(=O)[*:2])N[*:1]; Stearoyl = CCCCCCCCCCCCCCCCCC(=O)*; Palmitoyl = CCCCCCCCCCCCCCCC(=O)*; Nle = CCCC[C@H](N)C(=O)O; PEG2′ = not defined here; Aib = CC(C)(N)C(=O)O

Assays:
[1] = test system: human hepatic stellate cells (LX-2); experiment: In vitro inhibition of hepatic fibrosis: expression of activation marker α-SMA in LX-2 cells (Western Blot, β-actin internal reference); format: cell-based; conditions: 10.0 μM, 48 hours, negative control (PBS) = 100%
Experimental: Hepatic stellate cell strain LX-2 was selected to study and observe the effect of different doses of test substances on the expression of LX-2 cell activation marker α-SMA. Hepatic stellate cell LX-2 was laid on 35 mm cell culture plate, cultured with DMEM (high glucose)+10% FBS+1% double-antibody culture medium (Thermo Fisher), placed overnight when the cells grew to 70% convergence at 37° C. and under the condition of 5% CO2, and treated with the above GLP-1R/GCGR dual target agonist polypeptides 1-48 (dissolved in PBS) for 48 hours the next day morning to extract cell protein, carry out Western Blot, and take β-actin as internal reference and analyze the expression quantities of α-SMA and β-actin by a gray level of Image J 1.50i. PBS with the same volume as that in experimental group was added in negative control. […] The integrating gray level of α-SMA/β-actin in the negative control group was 100% to analyze the in vitro inhibition activity of hepatic fibrosis of tested polypeptide.

[2] = test system: BDL-induced cholestasis hepatic fibrosis in rats; experiment: Bile duct ligation (BDL)-induced hepatic fibrosis in rats (biliary cirrhosis rat model); format: in vivo, SD rats; conditions: 50 μg/kg subcutaneous every two days, 14 days
Experimental: 1. Experimental Drugs: polypeptide compounds 3, 6, 7, 10, 17, 20, 37, 38, 39, 40, 44, 46, Obeticholic Acid (Abbr. OCA, CAS:459789-99-2, purchased from Zhejiang Warrant Pharmaceutical Co., Ltd.) and Liraglutide. Saving condition was −20° C.
128 male SD rats with body weight of 200-230 g were randomly divided into sixteen groups, which were respectively:
SD rats with body weight of 200-230 g at SPF level were provided by Lanzhou University Laboratory Animal Center. After rats were quarantined in the room (SPF environment) for one week, model rat and rat in sham-operated group were subject to intraperitoneal injection and anesthesia with 0.6% pentobarbital sodium solution, and operation was performed on a super clean bench after anesthesia. Bilateral ligation was conducted on model rat after the common bile duct was separated, and ligation was not conducted on rat in sham-operated group, but only the common bile duct was separated. Administration was started from the next day of the operation.
Administration was started from the first day of the operation, and subcutaneous injection of compounds 3, 6, 7, 10, 17, 20, 37, 38, 39, 40, 44, 46 and Liraglutide with 50 μg/kg was performed every two days; intraperitoneal injection for the Obeticholic Acid administration group with 7.5 mg/kg was performed every day; as for the normal saline group, injection was performed every day. During the administration, changes in vital signs of rats were observed every day.
After the end of two weeks of administration cycle (14 days), the rats were killed to collect materials for subsequent biological determination experiments. The livers were taken out for HE dye, Sirius Red dye and IHC dye. Image-pro plus and Graph pad software were used for statistics.

Substance | Relative expression of α-SMA (α-SMA/β-actin, %) [1] [%] | other results
His-(D-Ser)-Gln-Gly-Thr-Phe-Thr-Ser-Asp-Tyr-Ser-Lys-Tyr-Leu-Asp-Lys(PEG2-PEG2-γGlu-CO(CH2)16CO2H)-Arg-Arg-Ala-Gln-Asp-Phe-Val-Gln-Trp-Leu-Nle-Asn-Thr-Gly-Gly-Pro-Ser-Ser-Gly-Ala-Pro-Pro-Pro-Ser-NH2 (H[dS]QGTFTSDYSKYLDK([PEG2′-PEG2′-γGlu-C18 diacid])RRAQDFVQWL[Nle]NTGGPSSGAPPPS-NH2) [Compound 38] | 40.55 | ALT in the serum (FIG. 6) [2]: significantly inhibit; BDL-induced hepatic fibrosis and inflammation (HE, Sirius Red, IHC sections) [2]: significantly reduce; collagenous fiber deposition in liver (Sirius Red dyed sections, FIGS. 2, 4) [2]: significantly inhibit; content of hydroxyproline of the liver (FIG. 7) [2]: significantly inhibit; α-SMA in liver (IHC dyed sections, FIGS. 3, 5) [2]: significantly inhibit
His-(D-Ser)-Gln-Gly-Thr-Phe-Thr-Ser-Asp-Tyr-Ser-Lys(PEG2-PEG2-CO(CH2)16CH3)-Lys-Leu-Asp-Aib-Arg-Arg-Ala-Gln-Asp-Phe-Val-Gln-Trp-Leu-Met-Asn-Thr-Gly-Gly-Pro-Ser-Ser-Gly-Ala-Pro-Pro-Pro-Ser-NH2 (H[dS]QGTFTSDYSK([PEG2′-PEG2′-Stearoyl])KLD[Aib]RRAQDFVQWLMNTGGPSSGAPPPS-NH2) [Compound 3] | 32.25 | ALT in the serum (FIG. 6) [2]: significantly inhibit; BDL-induced hepatic fibrosis and inflammation (HE, Sirius Red, IHC sections) [2]: significantly reduce; collagenous fiber deposition in liver (Sirius Red dyed sections, FIGS. 2, 4) [2]: significantly inhibit; content of hydroxyproline of the liver (FIG. 7) [2]: significantly inhibit; α-SMA in liver (IHC dyed sections, FIGS. 3, 5) [2]: significantly inhibit
His-(D-Ser)-Gln-Gly-Thr-Phe-Thr-Ser-Asp-Tyr-Ser-Lys(PEG2-PEG2-CO(CH2)16CO2H)-Lys-Leu-Asp-Aib-Arg-Arg-Ala-Gln-Asp-Phe-Val-Gln-Trp-Leu-Met-Asn-Thr-Gly-Gly-Pro-Ser-Ser-Gly-Ala-Pro-Pro-Pro-Ser-NH2 (H[dS]QGTFTSDYSK([PEG2′-PEG2′-C18 diacid])KLD[Aib]RRAQDFVQWLMNTGGPSSGAPPPS-NH2) [Compound 2] | 41.62 | 
His-(D-Ser)-Gln-Gly-Thr-Phe-Thr-Ser-Asp-Tyr-Ser-Lys(PEG2-PEG2-γGlu-CO(CH2)14CH3)-Lys-Leu-Asp-Aib-Arg-Arg-Ala-Gln-Asp-Phe-Val-Gln-Trp-Leu-Met-Asn-Thr-Gly-Gly-Pro-Ser-Ser-Gly-Ala-Pro-Pro-Pro-Ser-NH2 (H[dS]QGTFTSDYSK([PEG2′-PEG2′-γGlu-Palmitoyl])KLD[Aib]RRAQDFVQWLMNTGGPSSGAPPPS-NH2) [Compound 1] | 63.5 | 
His-(D-Ser)-Gln-Gly-Thr-Phe-Thr-Ser-Asp-Lys(PEG2-PEG2-CO(CH2)14CH3)-Ser-Lys-Tyr-Leu-Asp-Aib-Arg-Arg-Ala-Gln-Asp-Phe-Val-Gln-Trp-Leu-Nle-Asn-Thr-Gly-Gly-Pro-Ser-Ser-Gly-Ala-Pro-Pro-Pro-Ser-NH2 (H[dS]QGTFTSDK([PEG2′-PEG2′-Palmitoyl])SKYLD[Aib]RRAQDFVQWL[Nle]NTGGPSSGAPPPS-NH2) [Compound 45] | 32.22 | 
His-Aib-Gln-Gly-Thr-Phe-Thr-Ser-Asp-Lys(PEG2-PEG2-γGlu-CO(CH2)14CH3)-Ser-Lys-Tyr-Leu-Asp-Aib-Arg-Arg-Ala-Gln-Asp-Phe-Val-Gln-Trp-Leu-Leu-Asp-Gly-Gly-Pro-Ser-Ser-Gly-Ala-Pro-Pro-Pro-Ser-NH2 (H[Aib]QGTFTSDK([PEG2′-PEG2′-γGlu-Palmitoyl])SKYLD[Aib]RRAQDFVQWLLDGGPSSGAPPPS-NH2) [Compound 8] | 38.25 | 
His-(D-Ser)-Gln-Gly-Thr-Phe-Thr-Ser-Asp-Lys(PEG2-PEG2-γGlu-CO(CH2)16CO2H)-Ser-Lys-Tyr-Leu-Asp-Aib-Arg-Arg-Ala-Gln-Asp-Phe-Val-Gln-Trp-Leu-Leu-Asn-Thr-Gly-Gly-Pro-Ser-Ser-Gly-Ala-Pro-Pro-Pro-Ser-NH2 (H[dS]QGTFTSDK([PEG2′-PEG2′-γGlu-C18 diacid])SKYLD[Aib]RRAQDFVQWLLNTGGPSSGAPPPS-NH2) [Compound 47] | 40.36 | 
His-(D-Ser)-Gln-Gly-Thr-Phe-Thr-Ser-Asp-Tyr-Ser-Lys-Tyr-Leu-Asp-Lys(PEG2-PEG2-γGlu-CO(CH2)16CH3)-Arg-Arg-Ala-Gln-Asp-Phe-Val-Gln-Trp-Leu-Met-Asn-Thr-Gly-Gly-Pro-Ser-Ser-Gly-Ala-Pro-Pro-Pro-Ser-NH2 (H[dS]QGTFTSDYSKYLDK([PEG2′-PEG2′-γGlu-Stearoyl])RRAQDFVQWLMNTGGPSSGAPPPS-NH2) [Compound 36] | 42.49 | 
His-(D-Ser)-Gln-Gly-Thr-Phe-Thr-Ser-Asp-Lys(PEG2-PEG2-CO(CH2)16CO2H)-Ser-Lys-Tyr-Leu-Asp-Aib-Arg-Arg-Ala-Gln-Asp-Phe-Val-Gln-Trp-Leu-Met-Asn-Thr-Gly-Gly-Pro-Ser-Ser-Gly-Ala-Pro-Pro-Pro-Ser-NH2 (H[dS]QGTFTSDK([PEG2′-PEG2′-C18 diacid])SKYLD[Aib]RRAQDFVQWLMNTGGPSSGAPPPS-NH2) [Compound 30] | 55.53 | 
His-Aib-Gln-Gly-Thr-Phe-Thr-Ser-Asp-Lys(PEG2-PEG2-γGlu-CO(CH2)14CO2H)-Ser-Lys-Tyr-Leu-Asp-Glu-Arg-Arg-Ala-Gln-Asp-Phe-Val-Gln-Trp-Leu-Leu-Asp-Gly-Gly-Pro-Ser-Ser-Gly-Ala-Pro-Pro-Pro-Ser-NH2 (H[Aib]QGTFTSDK([PEG2′-PEG2′-γGlu-C16 diacid])SKYLDERRAQDFVQWLLDGGPSSGAPPPS-NH2) [Compound 13] | 37.93 | 
His-Aib-Gln-Gly-Thr-Phe-Thr-Ser-Asp-Lys(PEG2-PEG2-γGlu-CO(CH2)16CO2H)-Ser-Lys-Tyr-Leu-Asp-Aib-Arg-Arg-Ala-Gln-Asp-Phe-Val-Gln-Trp-Leu-Leu-Asp-Gly-Gly-Pro-Ser-Ser-Gly-Ala-Pro-Pro-Pro-Ser-NH2 (H[Aib]QGTFTSDK([PEG2′-PEG2′-γGlu-C18 diacid])SKYLD[Aib]RRAQDFVQWLLDGGPSSGAPPPS-NH2) [Compound 19] | 39.75 | 
His-(D-Ser)-Gln-Gly-Thr-Phe-Thr-Ser-Asp-Lys(PEG2-PEG2-CO(CH2)16CH3)-Ser-Lys-Tyr-Leu-Asp-Aib-Arg-Arg-Ala-Gln-Asp-Phe-Val-Gln-Trp-Leu-Met-Asn-Thr-Gly-Gly-Pro-Ser-Ser-Gly-Ala-Pro-Pro-Pro-Ser-NH2 (H[dS]QGTFTSDK([PEG2′-PEG2′-Stearoyl])SKYLD[Aib]RRAQDFVQWLMNTGGPSSGAPPPS-NH2) [Compound 32] | 37.14 | 
His-(D-Ser)-Gln-Gly-Thr-Phe-Thr-Ser-Asp-Tyr-Ser-Lys-Tyr-Leu-Asp-Glu-Lys-Ala-Ala-Lys(PEG2-PEG2-γGlu-CO(CH2)16CO2H)-Glu-Phe-Ile-Glu-Trp-Leu-Leu-Arg-Ala-NH2 (H[dS]QGTFTSDYSKYLDEKAAK([PEG2′-PEG2′-γGlu-C18 diacid])EFIEWLLRA-NH2) [Compound 18] | 45.60 | 
His-(D-Ser)-Gln-Gly-Thr-Phe-Thr-Ser-Asp-Tyr-Ser-Lys-Tyr-Leu-Asp-Aib-Lys(PEG2-PEG2-γGlu-CO(CH2)14CH3)-Arg-Ala-Gln-Asp-Phe-Val-Gln-Trp-Leu-Met-Asn-Thr-Gly-Gly-Pro-Ser-Ser-Gly-Ala-Pro-Pro-Pro-Ser-NH2 (H[dS]QGTFTSDYSKYLD[Aib]K([PEG2′-PEG2′-γGlu-Palmitoyl])RAQDFVQWLMNTGGPSSGAPPPS-NH2) [Compound 33] | 35.45 | 
His-(D-Ser)-Gln-Gly-Thr-Phe-Thr-Ser-Asp-Tyr-Ser-Lys-Tyr-Leu-Asp-Glu-Lys-Ala-Ala-Lys(PEG2-PEG2-γGlu-CO(CH2)14CH3)-Glu-Phe-Ile-Glu-Trp-Leu-Leu-Arg-Ala-NH2 (H[dS]QGTFTSDYSKYLDEKAAK([PEG2′-PEG2′-γGlu-Palmitoyl])EFIEWLLRA-NH2) [Compound 23] | 45.91 | 
His-(D-Ser)-Gln-Gly-Thr-Phe-Thr-Ser-Asp-Tyr-Ser-Lys-Tyr-Leu-Asp-Glu-Lys-Ala-Ala-Lys(PEG2-PEG2-γGlu-CO(CH2)16CH3)-Glu-Phe-Ile-Glu-Trp-Leu-Leu-Arg-Ala-NH2 (H[dS]QGTFTSDYSKYLDEKAAK([PEG2′-PEG2′-γGlu-Stearoyl])EFIEWLLRA-NH2) [Compound 24] | 32.42 | 
